The source of these data is publication PMC4604124, “In Vitro Characterization of the Pharmacological Properties of the Anti-Cancer Chelator, Bp4eT, and Its Phase I Metabolites” (PLoS ONE, 2015).

SMILES strings stand for the structures. Values joined by “and” are separate entries in the source; they are usually repeats but may differ in a detail not shown here. Identical values can stand only once. Like-named read-outs stand apart in the source and are kept apart here.

What is called IC50 is the concentration that gives 50% inhibition.

On the set-up of data set [1]: method as in PMID 24254882. The conditions noted are these: cited from earlier work.
The test system of data set [2] is HL-60 human promyelocytic leukemia cells. Nature of the data set: MTT cytotoxicity assay, HL-60 cells. In kind it is cell-based. The settings on record: for IC50: MTT, read-out: IC50. On the procedure:
(§1) For cytotoxicity experiments, cancer cells were seeded at a density of 5,000 (MCF-7), 10,000 (HL-60) or 2,000 cells/well (HCT116 and A549) in 96-well plates (TPP) for 24 h/37°C prior to the addition of examined agents. The non-cancerous cells, 3T3 and H9c2 cells, were cultured for 24 h/37°C in 96-well plates at a density of 10,000 cells/well, the medium was then changed to serum- and pyruvate-free DMEM (Sigma-Aldrich) and incubated with the cells for another 24 h/37°C. The cytotoxic effects of Bp4eT and its metabolites were studied at different concentrations after a 72 h/37°C incubation. In order to aid the dissolution of the lipophilic ligands, 0.1% dimethyl sulfoxide (v/v) (DMSO; Sigma-Aldrich) was present in the culture medium of all groups. At this concentration, DMSO had no effect on cellular proliferation or viability.
(§2) The viability of cells were determined using an MTT assay (Sigma-Aldrich) according to previously established methods. The optical density of soluble MTT was measured at λ = 570 nm, subtracting the λ = 690 nm background using a Tecan Infinite 200M plate reader (Tecan Group, Männedorf, Switzerland). The viability or proliferation of experimental groups was expressed as a percentage of the untreated controls (100%).
(§3) SigmaStat for Windows 3.5 (Systat Software, San Jose, CA, USA) statistical software package was utilized to analyze results. The data are expressed as the mean ± SD of a given number of experiments. Statistical significance was determined using a one-way ANOVA with a Bonferroni post-hoc test or Student’s t-test. The results were considered to be statistically significant when p < 0.05. The IC50 values were calculated using CalcuSyn 2.0 software (Biosoft, Cambridge, UK). Cell cycle analysis was evaluated using MultiCycle AV Software (Phoenix Flow Systems, San Diego, CA, USA).

The subject of data set [3] is cancer cells (HL-60, MCF-7, HCT116, A549) and non-cancerous cells (H9c2, 3T3). Nature of the data set: MTT cytotoxicity assay, summary over the cell line panel. In kind it is cell-based. The settings on record: HL-60, MCF-7, HCT116, A549; 72 h; read-out: IC50, range over cancer cells. On the procedure:
as §1, §2, §3
(Tetrazolium dyes change colour on reduction, which living cells bring about.)

Another data set concerns MCF-7 cells. Nature of the data set: Cellular 59Fe uptake from 59Fe2-transferrin. The conditions noted are these: for Uptake 59Fe, Ave: average of all replicates; for Uptake 59Fe, Ave / Uptake 59Fe: Control Ave = 100; for Uptake 59Fe: single replicate (three per date). Also on record: key to Uptake 59Fe, Ave / Uptake 59Fe: % of internalized 59Fe in untreated control cells. It counts as cell-based, human. The source says:
Human transferrin (Sigma) was labeled with ^56Fe or ^59Fe (PerkinElmer, Massachusetts, USA) to produce ^56Fe2-transferrin or ^59Fe2-transferrin (^59Fe2-Tf), respectively, with a final specific activity of 500 pCi/pmol Fe, as previously described. Unbound ^59Fe was removed by exhaustive vacuum dialysis against a large excess of 0.15 M NaCl buffered to pH 7.4 with 1.4% NaHCO3 by standard methods.
The ability of the chelators to prevent cellular ^59Fe uptake from ^59Fe2-transferrin was examined using standard techniques. In brief, confluent MCF-7 cells in 6-well plates were incubated with 0.75 μM ^59Fe2-Tf for 3 h/37°C in the presence of Bp4eT or its metabolites (25 μM). The cells were then washed four times with ice-cold PBS and the level of internalized ^59Fe was determined by incubating the cell monolayer for 30 min/4°C with the general protease, Pronase (1 mg/mL; Sigma-Aldrich). The cells were then removed from the monolayer with a plastic spatula on ice and centrifuged for 1 min/12,000 x g/4°C. The supernatant represents membrane-bound, Pronase-sensitive ^59Fe that was released by the protease, while the Pronase-insensitive fraction represents internalized ^59Fe. The amount of internalized ^59Fe was expressed as a percentage of ^59Fe internalized by control (untreated) cells.

With `CCN=CNN=C(c1ccccc1)c1ccccn1` [Bp4eA, N ^3-ethyl-N ^1-[phenyl(pyridin-2-yl)methylene]formamidrazone], in data set [1] (rat plasma, after 300 min post i.v. administration of Bp4eT), the “Highest concentration in plasma” value was less than 1 µM. The “Exposure relative to that of the parent compound” value in data set [1] (rats, intravenous administration of Bp4eT) was 20%. Further, the entries for the “Therapeutic index, IC50 non-cancerous cells / IC50 neoplastic cells” value in data set [2] (3T3/HL-60) and in data set [2] (H9c2/HL-60) were 19.7 and 8.0, respectively. Besides, the “MTT, relative to control (0 = 100)” value in data set [2] (HL-60, 10 000 b/j, 3 μM, průměr (mean), sheet Bp4eA) is 96.31; in data set [2] (HL-60, 10 000 b/j, 3 μM, single experiment (date), sheet Bp4eA), 98.9707 and 95.9296 and 99.8753 and 90.4839; in data set [2] (HL-60, 10 000 b/j, 10 μM, průměr (mean), sheet Bp4eA), 96.62; in data set [2] (HL-60, 10 000 b/j, 10 μM, single experiment (date), sheet Bp4eA) it was 97.2125 and 99.0002 and 94.4459 and 95.8253; in data set [2] (HL-60, 10 000 b/j, 30 μM, průměr (mean), sheet Bp4eA) it was 83.43; in data set [2] (HL-60, 10 000 b/j, 30 μM, single experiment (date), sheet Bp4eA), 80.8819 and 83.0208 and 86.8317 and 82.995. Besides, the “MTT, relative to control (0 = 100)” value in data set [2] (HL-60, 10 000 b/j, 50 μM, průměr (mean), sheet Bp4eA) was 62.90; in data set [2] (HL-60, 10 000 b/j, 50 μM, single experiment (date), sheet Bp4eA) it was 62.3054 and 62.5036 and 62.1604 and 64.6299; in data set [2] (HL-60, 10 000 b/j, 80 μM, průměr (mean), sheet Bp4eA) it was 16.51; in data set [2] (HL-60, 10 000 b/j, 100 μM, průměr (mean), sheet Bp4eA), 1.77; in data set [2] (HL-60, 10 000 b/j, 300 μM, průměr (mean), sheet Bp4eA), 1.66. Besides, the IC50 in data set [2] (HL-60, 10 000 b/j, single experiment (date), sheet Bp4eA) was 51 µM and 54.1 µM and 55.3 µM; in data set [2] (Homo sapiens, HL-60, 72 h, HL-60, 72 h/37°C, mean ± SD, n ≥ 4), 52.1 ± 3.3 µM; in data set [2] (Homo sapiens, HL-60, HL-60, 10 000 b/j, průměr (mean), sheet Bp4eA), 52.1 µM; in data set [2] (Homo sapiens, HL-60, HL-60, 10 000 b/j, single experiment (date), sheet Bp4eA) it was 47.9 µM; in data set [3] it was 52 to 207 µM. Also, the “Internalized 59Fe uptake, % of the control” value in the data set on MCF-7 cells (25 μM, 3 h/37°C, MCF-7, 0.75 μM 59Fe2-Tf) was “comparable to the untreated control”. Besides, the “Uptake 59Fe, Ave” value with MCF-7 cells was 93.4629. The “Uptake 59Fe” value in the data set with MCF-7 cells is 92.0297 and 96.1364 and 98.7564 and 74.0112 and 96.1871 and 80.6939 and 103.039 and 106.85.

On to `CCNC(=O)NN=C(c1ccccc1)c1ccccn1` [Z-Bp4eS, 2-benzoylpyridine 4-ethylsemicarbazone], for which the “Therapeutic index, IC50 non-cancerous cells / IC50 neoplastic cells” value was more than 21.6 in data set [2] (3T3/HL-60) and 7.4 in data set [2] (H9c2/HL-60). For the same compound, the IC50 in data set [2] (HL-60, 72 h/37°C, mean ± SD, n ≥ 4) is 46.2 ± 1.5 µM; in data set [2] (HL-60, 10 000 b/j, single experiment (date), sheet Z-Bp4eS), 46.2 µM and 48.3 µM and 45.5 µM; in data set [2] (Homo sapiens, HL-60, HL-60, 10 000 b/j, průměr (mean), sheet Z-Bp4eS), 46.2 µM; in data set [2] (Homo sapiens, HL-60, HL-60, 10 000 b/j, single experiment (date), sheet Z-Bp4eS), 44.9 µM. Further, the “MTT, relative to control (0 = 100)” value is 96.55 in data set [2] (HL-60, 10 000 b/j, 3 μM, průměr (mean), sheet Z-Bp4eS); 99.8024 and 101.089 and 96.0475 and 94.6794 and 91.1123 in data set [2] (HL-60, 10 000 b/j, 3 μM, single experiment (date), sheet Z-Bp4eS); 98.03 in data set [2] (HL-60, 10 000 b/j, 10 μM, průměr (mean), sheet Z-Bp4eS); 97.8586 and 97.7431 and 101.779 and 97.3762 and 95.3935 in data set [2] (HL-60, 10 000 b/j, 10 μM, single experiment (date), sheet Z-Bp4eS); 90.77 in data set [2] (HL-60, 10 000 b/j, 30 μM, průměr (mean), sheet Z-Bp4eS); 95.7321 and 90.5946 and 90.8492 and 85.9082 in data set [2] (HL-60, 10 000 b/j, 30 μM, single experiment (date), sheet Z-Bp4eS). The “MTT, relative to control (0 = 100)” value in data set [2] (HL-60, 10 000 b/j, 40 μM, průměr (mean), sheet Z-Bp4eS) was 82.14; in data set [2] (HL-60, 10 000 b/j, 40 μM, single experiment (date), sheet Z-Bp4eS), 82.3316 and 84.0304 and 91.7648 and 77.576 and 75.0054; in data set [2] (HL-60, 10 000 b/j, 50 μM, průměr (mean), sheet Z-Bp4eS), 40.92; in data set [2] (HL-60, 10 000 b/j, 50 μM, single experiment (date), sheet Z-Bp4eS) it was 42.5442 and 42.5088 and 37.382 and 41.2548; in data set [2] (HL-60, 10 000 b/j, 80 μM, průměr (mean), sheet Z-Bp4eS), 2.08; in data set [2] (HL-60, 10 000 b/j, 100 μM, průměr (mean), sheet Z-Bp4eS) it was 2.48. In addition, the “MTT, relative to control (0 = 100)” value in data set [2] (HL-60, 10 000 b/j, 300 μM, průměr (mean), sheet Z-Bp4eS) is 2.72; in data set [2] (HL-60, 10 000 b/j, 300 μM, single experiment (date), sheet Z-Bp4eS), 3.195 and 2.8028 and 2.136 and 2.734. Besides, the “Uptake 59Fe, Ave” value with MCF-7 cells is on record as 99.1556. Besides, the “Uptake 59Fe” value with MCF-7 cells was 95.0144 and 99.433 and 101.961 and 99.9491 and 96.6715 and 101.111 and 99.7324 and 96.809 and 101.719.
